Columns and labels:
[1] = biological target: SLC-1 expressing CHO cell membrane fractions (MCH receptor) (UniProt Q99705); assay: Determination of antagonist activity using GTPgS binding assay; format: biochemical, human and rat (not specified for the table); settings: [35S]-GTPγS binding stimulated by MCH, SLC-1 expressing CHO cell membrane 20 μg/ml, 1 hour; read-out: Inhibition Activity (IC50 value: nM)
Description: Membrane fraction was prepared by the following method, using the human SLC-1 expressing CHO cell clone 57 obtained in Reference Example 1-10, and the rat SLC-1 expressing CHO cell clone 44 obtained in Reference Example 1-4.
The human and rat SLC-1 expressing CHO cells (1×10^8) were scraped in buffer saline phosphate (pH 7.4) to which 5 mM EDTA (ethylenediaminetetraacetic acid) had been added, and centrifuged. 10 ml of homogenized buffer (10 mM NaHCO3, 5 mM EDTA, pH 7.5) was added to the cell pellets, and they were homogenized using a Polytron homogenizer. […]
After this reaction mixture was allowed to react for 1 hour under stirring, it was filtered under vacuum using a glass filter (GF-C), then the filter was washed 3 times with 300 μl of washing solution (50 mM Tris-HCl buffer solution pH 7.5). […] of liquid scintillator was added to the glass filter, and residual radioactivity was determined using a liquid scintillation counter.
The IC50 value of the compound was calculated from the binding inhibition rate (%), based on the definition that the binding inhibition rate (%)=(radioactivity when compound and MCH were added−radioactivity when DMSO solution was added)/(radioactivity when MCH was added−radioactivity when DMSO solution was added)×100.

Row | Structure (SMILES) | IC50 [1] [nM] | melting point
1 | COc1ccc(C2CCN(C(=O)Nc3ccc4c(c3)CCC(CN3CCN(C)CC3)=C4)CC2)cc1 [Example 242, 4-(4-Methoxyphenyl)-N-[6-[(4-methyl-1-piperazinyl)methyl]-7,8-dihydro-2-naphthalenyl]-1-piperidinecarboxamide] |  | 198 to 200 °C
2 | CN(C)CC1=Cc2ccc(NC(=O)c3ccc(-c4ccc(F)cc4)cc3)cc2C1 [Example 245, N-[2-[(Dimethylamino)methyl]-1H-inden-6-yl]-4′-fluoro[1,1′-biphenyl]-4-carboxamide] |  | 209 to 211 °C
3 | CN(C)CC1CCc2cc(NC(=O)c3ccc(-c4ccccc4)cc3)ccc2C1.Cl (stereo not drawn) [Reference Example 25, N-[2-(N,N-Dimethylamino)methyl-6-tetralinyl]-4-biphenylylcarboxamide hydrochloride] | 90 | > 250 °C
4 | O=C(NCCN1CCCCC1)c1ccc(NC(=O)c2ccc(-c3ccccc3)cc2)cc1 [compound 22, N-[4-[[2-(Piperidinoethyl)amino]carbonyl]phenyl] 4-biphenylylcarboxamide] |  | 247 to 252 °C (dec.)
5 | O=C(NCCN1CCCC1)c1ccc(NC(=O)c2ccc(-c3ccccc3)cc2)cc1 [compound 23] |  | 241 to 245 °C (dec.)
6 | CN(C)CC1CCc2cc(NC(=O)c3ccc(-c4ccccc4)cc3)ccc2C1 (stereo not drawn) [compound 24, N-[2-(N,N-Dimethylamino)methyl-6-tetralinyl]-4-biphenylylcarboxamide] |  | 164 to 166 °C

Next, values leading:

Row | IC50 [1] [nM] | melting point | Structure (SMILES)
7 | 40 |  | COc1ccc(-c2ccc(C(=O)Nc3ccc4c(c3)CCC(CN(C)C)C4)cc2)cc1 (stereo not drawn) [Example 1, N-[2-(N,N-Dimethylamino)methyl-6-tetralinyl]-(4′-methoxybiphenyl-4-yl)carboxamide]
8 |  | 218 to 220 °C | CN(C)CC1=Cc2ccc(NC(=O)c3ccc(-c4ccc(Cl)cc4)cc3)cc2C1 [Example 246, 4′-Chloro-N-[2-[(dimethylamino)methyl]-1H-inden-6-yl][1,1′-biphenyl]-4-carboxamide]

From patent US7115750B1, “Melanin concentrating hormone antagonist” (Takeda Pharmaceutical Company Limited, priority 1999, dated 2006)
